Source: publication PMC8710297, “Identification of potent SENP1 inhibitors that inactivate SENP1/JAK2/STAT signaling pathway and overcome platinum drug resistance in ovarian cancer” (Clinical and Translational Medicine, 2021)

Target: T1, SENP1 (Homo sapiens, UniProt Q9P0U3)
T1 sequence (Q9P0U3 1-644): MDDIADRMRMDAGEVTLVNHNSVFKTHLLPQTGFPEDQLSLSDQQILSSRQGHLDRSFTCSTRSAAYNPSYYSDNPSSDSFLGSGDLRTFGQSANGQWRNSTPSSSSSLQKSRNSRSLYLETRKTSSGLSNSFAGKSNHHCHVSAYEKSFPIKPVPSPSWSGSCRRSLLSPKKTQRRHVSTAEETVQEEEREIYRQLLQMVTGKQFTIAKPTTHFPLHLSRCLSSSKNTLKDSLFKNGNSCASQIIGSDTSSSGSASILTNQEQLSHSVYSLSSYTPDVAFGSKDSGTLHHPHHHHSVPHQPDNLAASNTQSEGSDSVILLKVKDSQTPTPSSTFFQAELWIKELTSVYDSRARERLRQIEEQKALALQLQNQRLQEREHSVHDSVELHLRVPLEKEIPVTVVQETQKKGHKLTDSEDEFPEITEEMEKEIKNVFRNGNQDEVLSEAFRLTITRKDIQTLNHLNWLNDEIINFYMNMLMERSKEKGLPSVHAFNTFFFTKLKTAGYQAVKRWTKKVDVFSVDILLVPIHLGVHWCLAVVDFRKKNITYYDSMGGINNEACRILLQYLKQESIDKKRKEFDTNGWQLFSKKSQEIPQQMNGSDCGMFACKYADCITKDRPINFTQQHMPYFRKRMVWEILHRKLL
Assay: Cellular thermal shift assay
Format: cell-based
Parameters: endogenous in cells; host or cells: IGROV1 CR cells
Conditions: IGROV1 CR cells, 4 h, higher temperatures
Procedure: FIGURE 2 UA directly interacts with Sentrin‐specific protease 1 (SENP1). (A) Cellular thermal shift assay to examine the interaction of UA with SENP1. IGROV1 CR cells pretreated with MG132 (10 μM, 1 h) were incubated with DMSO or UA for 4 h before being shifted to indicated temperatures. SENP1 stability was analyzed by using Western blot against SENP1 antibody. Right panel, quantification of non‐denatured SENP1 fraction shown in the left panel. (B) Cell‐free thermal shift assay to examine interactions of UA with SENP1. Purified SENP1 proteins were incubated with DMSO or UA for 4 h before being shifted to the indicated temperatures. SENP1 stability was analyzed by using Western blot against SENP1 antibody. Right panel, quantification of non‐denatured SENP1 fraction shown in the left panel. […] Stability of SENP1(C603A) was analyzed by using Western blot against SENP1 antibody. […] Left; Ultra‐high performance liquid‐chromatography‐MS/MS analyses of associated UA in indicated samples, right; quantification of data shown in left (the binding affinity of UA with SENP1‐C603A was normalized as 1). […]
FIGURE 3 Identification of UAMMC9 from UA derivatives. […] Stability of SENP1(C603A) was analyzed by using Western blot against SENP1 antibody. […]
The qu anti ficatio n of immunohistochemical sta in ing wa s scored blindly at lea st by two […]

| Structure (SMILES) | thermal stabilization of SENP1 in cells |
| --- | --- |
| C[C@H]1[C@H](C)CC[C@]2(C(=O)O)CC[C@]3(C)C(=CC[C@@H]4[C@@]5(C)CC[C@H](O)C(C)(C)[C@@H]5CC[C@]43C)[C@H]12 [UA, ursolic acid, reference compound] | stabilized |
| C[C@H]1[C@H](C)CC[C@]2(C(=O)NCC(=O)N(C)CCO)CC[C@]3(C)C(=CC[C@@H]4[C@@]5(C)CC[C@H](O)C(C)(C)[C@@H]5CC[C@]43C)[C@H]12 [UAMMC9] | directly interacted with SENP1 |
